Test results as given in ChEMBL document CHEMBL4507300 (2021).

Assays:
[1] = biological target: Dual specificity protein kinase CLK4 (Homo sapiens) (UniProt Q9HAZ1); conditions: Compound concentration 1000.0 nM
[2] = biological target: Hormonally up-regulated neu tumor-associated kinase (Homo sapiens) (UniProt P57058); conditions: Compound concentration 1000.0 nM
[3] = biological target: Serine/threonine-protein kinase Nek9 (Homo sapiens) (UniProt Q8TD19); conditions: Compound concentration 1000.0 nM
[4] = biological target: 5-hydroxytryptamine receptor 1B (Homo sapiens) (UniProt P28222); conditions: Compound concentration 10.0 uM
[5] = biological target: Cytoplasmic tyrosine-protein kinase BMX (Homo sapiens) (UniProt P51813); conditions: Compound concentration 1000.0 nM
[6] = biological target: Fibroblast growth factor receptor 1 (Homo sapiens) (UniProt P11362); conditions: Compound concentration 1000.0 nM
Fibroblast growth factor receptor 1 (Homo sapiens), sequence (P11362 22-822 limits assumed): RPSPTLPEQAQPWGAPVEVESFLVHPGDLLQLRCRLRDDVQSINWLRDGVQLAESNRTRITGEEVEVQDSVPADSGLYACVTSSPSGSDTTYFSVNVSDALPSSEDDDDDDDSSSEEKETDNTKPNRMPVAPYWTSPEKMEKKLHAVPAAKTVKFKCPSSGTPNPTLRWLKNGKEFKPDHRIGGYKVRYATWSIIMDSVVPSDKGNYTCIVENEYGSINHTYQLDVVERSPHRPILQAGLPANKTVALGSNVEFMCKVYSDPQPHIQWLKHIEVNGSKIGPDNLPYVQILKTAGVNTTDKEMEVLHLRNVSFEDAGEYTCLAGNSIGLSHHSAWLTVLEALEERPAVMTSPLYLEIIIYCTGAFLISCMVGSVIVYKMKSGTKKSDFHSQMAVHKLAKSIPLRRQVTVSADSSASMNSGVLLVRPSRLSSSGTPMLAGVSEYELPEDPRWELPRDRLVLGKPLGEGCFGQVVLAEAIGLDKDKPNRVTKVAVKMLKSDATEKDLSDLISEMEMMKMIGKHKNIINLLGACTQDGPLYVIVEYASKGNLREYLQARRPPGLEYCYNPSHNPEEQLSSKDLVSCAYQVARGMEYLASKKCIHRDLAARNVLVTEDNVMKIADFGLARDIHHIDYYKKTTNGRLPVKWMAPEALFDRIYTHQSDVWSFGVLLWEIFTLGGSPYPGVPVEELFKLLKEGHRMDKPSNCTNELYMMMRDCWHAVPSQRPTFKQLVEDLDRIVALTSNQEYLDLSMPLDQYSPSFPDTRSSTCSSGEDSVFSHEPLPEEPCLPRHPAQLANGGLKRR

[7] = biological target: D(3) dopamine receptor (Homo sapiens) (UniProt P35462); conditions: Compound concentration 10.0 uM
[8] = biological target: SRSF protein kinase 3 (Homo sapiens) (UniProt Q9UPE1); conditions: Compound concentration 1000.0 nM
[9] = system: Receptor-type tyrosine-protein kinase FLT3 (Homo sapiens), P36888 [D835H]; conditions: Compound concentration 1000.0 nM
[10] = biological target: Non-receptor tyrosine-protein kinase TNK1 (Homo sapiens) (UniProt Q13470); conditions: Compound concentration 1000.0 nM
Non-receptor tyrosine-protein kinase TNK1 (Homo sapiens), sequence (Q13470 whole entry): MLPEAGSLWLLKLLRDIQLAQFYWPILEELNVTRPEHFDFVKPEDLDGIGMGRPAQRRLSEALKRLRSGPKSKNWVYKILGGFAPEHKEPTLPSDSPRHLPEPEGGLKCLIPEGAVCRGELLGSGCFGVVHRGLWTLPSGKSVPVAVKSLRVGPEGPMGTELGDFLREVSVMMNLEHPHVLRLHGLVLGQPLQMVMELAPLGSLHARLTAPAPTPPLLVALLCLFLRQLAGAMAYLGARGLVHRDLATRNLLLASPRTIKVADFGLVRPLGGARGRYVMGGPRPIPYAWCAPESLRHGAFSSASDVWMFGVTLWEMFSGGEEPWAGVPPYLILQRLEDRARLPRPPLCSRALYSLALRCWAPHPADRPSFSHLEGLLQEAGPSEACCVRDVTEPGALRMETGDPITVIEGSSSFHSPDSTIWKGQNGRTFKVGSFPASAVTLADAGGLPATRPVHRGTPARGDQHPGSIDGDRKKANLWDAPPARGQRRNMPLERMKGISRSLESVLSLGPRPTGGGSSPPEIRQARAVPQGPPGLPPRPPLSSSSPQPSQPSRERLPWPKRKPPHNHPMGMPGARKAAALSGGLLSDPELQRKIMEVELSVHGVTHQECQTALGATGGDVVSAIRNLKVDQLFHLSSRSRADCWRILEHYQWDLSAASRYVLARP

[11] = biological target: Protein kinase C eta type (Homo sapiens) (UniProt P24723); conditions: Compound concentration 1000.0 nM
[12] = biological target: Mitogen-activated protein kinase kinase kinase 13 (Homo sapiens) (UniProt O43283); conditions: Compound concentration 1000.0 nM
Mitogen-activated protein kinase kinase kinase 13 (Homo sapiens), sequence (O43283 whole entry): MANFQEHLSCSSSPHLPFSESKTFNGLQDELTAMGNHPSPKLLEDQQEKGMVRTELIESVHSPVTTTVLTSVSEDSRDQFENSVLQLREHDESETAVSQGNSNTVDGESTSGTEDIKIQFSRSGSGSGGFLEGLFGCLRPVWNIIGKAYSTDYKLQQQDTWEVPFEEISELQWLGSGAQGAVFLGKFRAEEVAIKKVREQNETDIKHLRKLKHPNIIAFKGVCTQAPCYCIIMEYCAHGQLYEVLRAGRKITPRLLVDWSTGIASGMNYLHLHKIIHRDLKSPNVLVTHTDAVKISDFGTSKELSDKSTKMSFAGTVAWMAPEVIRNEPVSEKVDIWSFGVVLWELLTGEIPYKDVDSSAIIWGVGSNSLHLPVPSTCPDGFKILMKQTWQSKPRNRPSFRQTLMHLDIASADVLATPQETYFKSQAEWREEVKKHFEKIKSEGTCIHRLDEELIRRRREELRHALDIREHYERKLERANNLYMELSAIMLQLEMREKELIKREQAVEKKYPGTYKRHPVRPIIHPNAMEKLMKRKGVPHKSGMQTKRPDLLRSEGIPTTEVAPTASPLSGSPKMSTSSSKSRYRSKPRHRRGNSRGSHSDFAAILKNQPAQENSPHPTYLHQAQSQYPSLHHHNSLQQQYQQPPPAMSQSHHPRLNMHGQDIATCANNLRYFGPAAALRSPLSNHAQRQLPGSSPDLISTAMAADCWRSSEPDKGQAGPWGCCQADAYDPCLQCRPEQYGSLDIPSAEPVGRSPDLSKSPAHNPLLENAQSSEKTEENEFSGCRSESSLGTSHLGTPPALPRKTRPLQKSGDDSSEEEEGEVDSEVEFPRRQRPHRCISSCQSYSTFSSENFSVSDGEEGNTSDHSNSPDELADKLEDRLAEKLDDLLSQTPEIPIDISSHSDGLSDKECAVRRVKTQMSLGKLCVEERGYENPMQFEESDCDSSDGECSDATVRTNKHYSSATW

[13] = biological target: RAC-alpha serine/threonine-protein kinase (Homo sapiens) (UniProt P31749); conditions: Compound concentration 1000.0 nM
[14] = biological target: Ephrin type-B receptor 1 (Homo sapiens) (UniProt P54762); conditions: Compound concentration 1000.0 nM
[15] = biological target: Kappa-type opioid receptor (Homo sapiens) (UniProt P41145); conditions: Compound concentration 10.0 uM
[16] = biological target: Serine/threonine-protein kinase RIO1 (Homo sapiens) (UniProt Q9BRS2); conditions: Compound concentration 1000.0 nM
[17] = biological target: Dual specificity tyrosine-phosphorylation-regulated kinase 2 (Homo sapiens) (UniProt Q92630); conditions: Compound concentration 1000.0 nM
[18] = biological target: Histamine H3 receptor (Homo sapiens) (UniProt Q9Y5N1); conditions: Compound concentration 10.0 uM
Histamine H3 receptor (Homo sapiens), sequence (Q9Y5N1 whole entry): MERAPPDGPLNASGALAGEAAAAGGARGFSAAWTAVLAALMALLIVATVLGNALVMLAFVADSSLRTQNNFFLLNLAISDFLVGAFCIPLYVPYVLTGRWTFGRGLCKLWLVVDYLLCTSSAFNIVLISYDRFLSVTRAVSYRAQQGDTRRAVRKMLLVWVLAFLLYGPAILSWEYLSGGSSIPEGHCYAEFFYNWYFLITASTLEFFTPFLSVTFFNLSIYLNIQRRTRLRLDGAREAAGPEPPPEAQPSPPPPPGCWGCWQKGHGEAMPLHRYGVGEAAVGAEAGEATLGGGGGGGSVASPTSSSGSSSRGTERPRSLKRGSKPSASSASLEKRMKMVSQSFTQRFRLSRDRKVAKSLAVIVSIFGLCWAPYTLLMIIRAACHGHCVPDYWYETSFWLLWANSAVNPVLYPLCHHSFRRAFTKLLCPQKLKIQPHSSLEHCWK

[19] = system: Receptor-type tyrosine-protein kinase FLT3 (Homo sapiens), P36888 [K663Q]; conditions: Compound concentration 1000.0 nM
[20] = biological target: Protein-tyrosine kinase 2-beta (Homo sapiens) (UniProt Q14289); conditions: Compound concentration 1000.0 nM
[21] = system: Mast/stem cell growth factor receptor Kit (Homo sapiens), P10721 [V559D,V654A]; conditions: Compound concentration 1000.0 nM
[22] = biological target: Serine/threonine-protein kinase N1 (Homo sapiens) (UniProt Q16512); conditions: Compound concentration 1000.0 nM
[23] = biological target: Phosphatidylinositol 5-phosphate 4-kinase type-2 gamma (Homo sapiens) (UniProt Q8TBX8); conditions: Compound concentration 1000.0 nM
[24] = biological target: Dual specificity protein kinase CLK2 (Homo sapiens) (UniProt P49760); conditions: Compound concentration 1000.0 nM
Dual specificity protein kinase CLK2 (Homo sapiens), sequence (P49760 whole entry, looked up): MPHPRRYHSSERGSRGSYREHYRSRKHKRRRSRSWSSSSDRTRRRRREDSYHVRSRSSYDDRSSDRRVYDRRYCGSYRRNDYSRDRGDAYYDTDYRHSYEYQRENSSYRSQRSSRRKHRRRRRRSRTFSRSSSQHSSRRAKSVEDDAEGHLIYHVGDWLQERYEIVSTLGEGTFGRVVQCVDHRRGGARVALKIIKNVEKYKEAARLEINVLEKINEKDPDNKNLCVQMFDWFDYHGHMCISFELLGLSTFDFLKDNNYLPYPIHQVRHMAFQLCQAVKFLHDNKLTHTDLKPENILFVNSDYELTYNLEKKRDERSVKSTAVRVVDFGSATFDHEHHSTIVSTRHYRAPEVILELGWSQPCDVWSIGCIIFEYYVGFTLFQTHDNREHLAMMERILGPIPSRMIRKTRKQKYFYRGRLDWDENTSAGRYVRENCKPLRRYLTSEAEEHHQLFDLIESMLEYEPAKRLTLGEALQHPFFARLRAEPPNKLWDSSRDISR

[25] = biological target: Serine/threonine-protein kinase ULK1 (Homo sapiens) (UniProt O75385); conditions: Compound concentration 1000.0 nM
[26] = biological target: Ribosomal protein S6 kinase alpha-1 (Homo sapiens) (UniProt Q15418); conditions: Compound concentration 1000.0 nM
[27] = biological target: Serine/threonine-protein kinase 25 (Homo sapiens) (UniProt O00506); conditions: Compound concentration 1000.0 nM
[28] = biological target: Serine/threonine-protein kinase PAK 2 (Homo sapiens) (UniProt Q13177); conditions: Compound concentration 1000.0 nM
[29] = biological target: Serine/threonine-protein kinase Sgk2 (Homo sapiens) (UniProt Q9HBY8); conditions: Compound concentration 1000.0 nM
[30] = biological target: Serine/threonine-protein kinase 35 (Homo sapiens) (UniProt Q8TDR2); conditions: Compound concentration 1000.0 nM
[31] = biological target: Serine/threonine-protein kinase WNK3 (Homo sapiens) (UniProt Q9BYP7); conditions: Compound concentration 1000.0 nM
[32] = system: Fibroblast growth factor receptor 3 (Homo sapiens), P22607 [G697C]; conditions: Compound concentration 1000.0 nM
[33] = biological target: Mitogen-activated protein kinase 14 (Homo sapiens) (UniProt Q16539); conditions: Compound concentration 1000.0 nM
[34] = biological target: Activin receptor type-2A (Homo sapiens) (UniProt P27037); conditions: Compound concentration 1000.0 nM
[35] = biological target: Serine/threonine-protein kinase 32C (Homo sapiens) (UniProt Q86UX6); conditions: Compound concentration 1000.0 nM
Serine/threonine-protein kinase 32C (Homo sapiens), sequence (Q86UX6 whole entry): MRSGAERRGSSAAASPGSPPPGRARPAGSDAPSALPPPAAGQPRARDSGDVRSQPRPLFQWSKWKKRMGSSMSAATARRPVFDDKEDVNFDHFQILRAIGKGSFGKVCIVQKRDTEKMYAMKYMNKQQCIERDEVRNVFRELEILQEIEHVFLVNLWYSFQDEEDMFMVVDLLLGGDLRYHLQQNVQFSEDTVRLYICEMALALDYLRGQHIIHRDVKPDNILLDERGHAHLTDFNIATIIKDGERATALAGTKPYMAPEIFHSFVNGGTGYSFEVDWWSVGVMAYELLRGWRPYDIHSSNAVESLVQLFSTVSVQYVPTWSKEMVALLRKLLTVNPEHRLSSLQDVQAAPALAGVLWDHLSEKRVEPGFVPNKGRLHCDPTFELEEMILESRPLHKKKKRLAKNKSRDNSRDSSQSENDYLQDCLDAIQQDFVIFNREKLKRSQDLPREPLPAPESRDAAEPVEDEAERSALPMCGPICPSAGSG

[36] = biological target: Calcium-dependent protein kinase 1 (Plasmodium falciparum) (UniProt P62344); conditions: Compound concentration 1000.0 nM
[37] = biological target: Myosin light chain kinase 2, skeletal/cardiac muscle (Homo sapiens) (UniProt Q9H1R3); conditions: Compound concentration 1000.0 nM
[38] = system: Tyrosine-protein kinase ABL1 (Homo sapiens), P00519 [H396P]; conditions: Compound concentration 1000.0 nM
[39] = biological target: Uncharacterized serine/threonine-protein kinase SBK3 (Homo sapiens) (UniProt P0C264); conditions: Compound concentration 1000.0 nM
[40] = biological target: Testis-specific serine/threonine-protein kinase 1 (Homo sapiens) (UniProt Q9BXA7); conditions: Compound concentration 1000.0 nM
Testis-specific serine/threonine-protein kinase 1 (Homo sapiens), sequence (Q9BXA7 whole entry): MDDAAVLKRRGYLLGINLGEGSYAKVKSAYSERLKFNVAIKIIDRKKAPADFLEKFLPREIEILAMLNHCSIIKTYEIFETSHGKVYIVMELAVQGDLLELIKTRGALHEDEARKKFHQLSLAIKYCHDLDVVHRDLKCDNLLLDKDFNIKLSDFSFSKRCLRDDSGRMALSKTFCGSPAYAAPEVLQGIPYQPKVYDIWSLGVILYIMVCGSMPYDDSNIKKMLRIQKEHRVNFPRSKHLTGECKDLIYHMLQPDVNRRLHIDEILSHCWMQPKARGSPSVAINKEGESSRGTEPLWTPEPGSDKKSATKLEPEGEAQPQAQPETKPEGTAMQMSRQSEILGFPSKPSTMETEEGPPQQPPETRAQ

[41] = biological target: Serine/threonine-protein kinase Nek6 (Homo sapiens) (UniProt Q9HC98); conditions: Compound concentration 1000.0 nM
[42] = biological target: Tyrosine-protein kinase JAK1 (Homo sapiens) (UniProt P23458); conditions: Compound concentration 1000.0 nM
[43] = biological target: Dual specificity protein kinase CLK3 (Homo sapiens) (UniProt P49761); conditions: Compound concentration 1000.0 nM
[44] = biological target: Muscarinic acetylcholine receptor M2 (Homo sapiens) (UniProt P08172); conditions: Compound concentration 10.0 uM
[45] = biological target: Dual specificity mitogen-activated protein kinase kinase 1 (Homo sapiens) (UniProt Q02750); conditions: Compound concentration 1000.0 nM

Hormonally up-regulated neu tumor-associated kinase (Homo sapiens), sequence (P57058 whole entry): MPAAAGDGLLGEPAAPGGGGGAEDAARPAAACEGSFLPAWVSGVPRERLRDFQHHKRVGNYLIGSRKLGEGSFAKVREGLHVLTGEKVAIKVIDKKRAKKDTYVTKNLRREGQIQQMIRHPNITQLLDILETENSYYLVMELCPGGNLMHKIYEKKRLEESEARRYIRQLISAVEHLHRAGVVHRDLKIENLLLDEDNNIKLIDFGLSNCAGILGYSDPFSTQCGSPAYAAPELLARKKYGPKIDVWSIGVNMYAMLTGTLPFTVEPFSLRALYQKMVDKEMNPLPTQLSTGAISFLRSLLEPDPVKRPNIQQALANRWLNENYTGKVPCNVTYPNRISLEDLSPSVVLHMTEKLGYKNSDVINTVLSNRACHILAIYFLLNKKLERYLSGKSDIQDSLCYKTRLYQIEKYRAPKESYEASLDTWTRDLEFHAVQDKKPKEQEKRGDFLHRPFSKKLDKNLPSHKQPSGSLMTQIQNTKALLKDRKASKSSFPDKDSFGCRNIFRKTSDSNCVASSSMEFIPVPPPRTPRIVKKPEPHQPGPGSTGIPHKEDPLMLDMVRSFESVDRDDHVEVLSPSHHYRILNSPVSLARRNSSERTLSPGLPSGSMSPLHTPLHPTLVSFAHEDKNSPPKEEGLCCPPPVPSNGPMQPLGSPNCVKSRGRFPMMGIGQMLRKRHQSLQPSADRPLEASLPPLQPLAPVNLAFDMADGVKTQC

COc1cccc(CNC(=O)c2nc3scc(COCc4ccc(C(=O)O)cc4)c3c(=O)[nH]2)c1 [T-26c]
inactive: residual activity [1] 94.4% | residual activity [2] 100% | residual activity [3] 98.2% | inhibition [4] 15.9% | residual activity [5] 100% | residual activity [6] 86.5% | inhibition [7] 10.5% | residual activity [8] 70.1% | residual activity [9] 92.9% | residual activity [10] 100% | residual activity [11] 83.7% | residual activity [12] 61.5% | residual activity [13] 99.9% | residual activity [14] 90.9% | inhibition [15] 8.18% | residual activity [16] 52.1% | residual activity [17] 100% | inhibition [18] -9.59% | residual activity [19] 93% | residual activity [20] 85.3% | residual activity [21] 98% | residual activity [22] 100% | residual activity [23] 74.7% | residual activity [24] 92.4% | residual activity [25] 74% | residual activity [26] 100% | residual activity [27] 100% | residual activity [28] 100% | residual activity [29] 84.9% | residual activity [30] 93.6% | residual activity [31] 83.6% | residual activity [32] 80.2% | residual activity [33] 96.7% | residual activity [34] 92.9% | residual activity [35] 89.6% | residual activity [36] 72.7% | residual activity [37] 100% | residual activity [38] 86.4% | residual activity [39] 100% | residual activity [40] 88.2% | residual activity [41] 71% | residual activity [42] 76% | residual activity [43] 100% | inhibition [44] -2.95% | residual activity [45] 73.5%
